Legend:
[1] = tested on: 2'-F aptamer (RNA, aptamer, 2'-F RNA (DuraScribe T7 transcription; modified positions not stated)) GGGAUGGACGAUCAUAUAACGAUAGCACUGGCGUAGGGAGACUACGUGUCCGU; assay: phosphorescence titration; conditions: 100 mM NaCl, 5 mM MgCl2; 20 mM HEPES pH 7.0; 1 μM compound, RNA up to 10 μM
[2] = tested on: Δ Hairpin loop2 (RNA, aptamer) GGGAUGGACGAUCAUAUAACGAUAGCACUGGUGUCCGU; assay: phosphorescence titration; conditions: 100 mM NaCl, 5 mM MgCl2; 20 mM HEPES pH 7.0; 1 μM compound, RNA up to 10 μM
[3] = tested on: Ru(bpy)3^2+ aptamer (Δ 25@3', Δ 5@5'; 53 nt) (RNA, aptamer) GGGAUGGACGAUCAUAUAACGAUAGCACUGGCGUAGGGAGACUACGUGUCCGU; assay: ITC; conditions: Na+ (phosphate-buffered saline, concentration not stated); PBS (Takara T900); 5 μM aptamer in cell, 50 μM compound in syringe
[4] = tested on: Δ 15@3' (RNA, aptamer) GGGACACAAUGGACGAUCAUAUAACGAUAGCACUGGCGUAGGGAGACUACGUGUCCGUGUGUACCUAA; assay: phosphorescence titration; conditions: 100 mM NaCl, 5 mM MgCl2; 20 mM HEPES pH 7.0; 1 μM compound, RNA 1 to 10 μM
[5] = tested on: Δ 31@3 (RNA, aptamer) GGGACACAAUGGACGAUCAUAUAACGAUAGCACUGGCGUAGGGAGACUACGU; assay: phosphorescence titration; conditions: 100 mM NaCl, 5 mM MgCl2; 20 mM HEPES pH 7.0; 1 μM compound, RNA up to 10 μM
[6] = tested on: Ru(bpy)3^2+ aptamer (Δ 25@3', Δ 5@5'; 53 nt) (RNA, aptamer) GGGAUGGACGAUCAUAUAACGAUAGCACUGGCGUAGGGAGACUACGUGUCCGU; assay: phosphorescence titration; conditions: 100 mM NaCl, 5 mM MgCl2; 20 mM HEPES pH 7.0; 1 μM compound, RNA 1 to 10 μM
[7] = tested on: Δ Loop2 (RNA, aptamer) GGGAUGGACGAUCAUAUAACGAUAGCGUAGGGAGACUACGUGUCCGU; assay: phosphorescence titration; conditions: 100 mM NaCl, 5 mM MgCl2; 20 mM HEPES pH 7.0; 1 μM compound, RNA up to 10 μM
[8] = tested on: Δ Hairpin loop1 (RNA, aptamer) GGGAUGGACGAUAGCACUGGCGUAGGGAGACUACGUGUCCGU; assay: phosphorescence titration; conditions: 100 mM NaCl, 5 mM MgCl2; 20 mM HEPES pH 7.0; 1 μM compound, RNA up to 10 μM
[9] = tested on: Δ 25@3' (RNA, aptamer) GGGACACAAUGGACGAUCAUAUAACGAUAGCACUGGCGUAGGGAGACUACGUGUCCGU; assay: phosphorescence titration; conditions: 100 mM NaCl, 5 mM MgCl2; 20 mM HEPES pH 7.0; 1 μM compound, RNA 1 to 10 μM
[10] = tested on: 12Rd-1 (RNA, aptamer) GGGACACAAUGGACGGUACGUAUUGCGUGGGACCCCGCGCAAUGAACUGGCCGAGGGAGACUCGGUAACGGCCGACAUGAGAG; assay: phosphorescence titration; conditions: 100 mM NaCl, 5 mM MgCl2; 20 mM HEPES pH 7.0; 1 μM compound, RNA 1 to 10 μM
[11] = tested on: 12Rd-5 (RNA, aptamer) GGGACACAAUGGACGAUCAUAUAACGAUAGCACUGGCGUAGGGAGACUACGUGUCCGUGUGUACCUAACGGCCGACAUGAGAG; assay: phosphorescence titration; conditions: 100 mM NaCl, 5 mM MgCl2; 20 mM HEPES pH 7.0; 1 μM compound, RNA 1 to 10 μM
[12] = tested on: 12Rd-2 (RNA, aptamer) GGGACACAAUGGACGGCAGAUCUGAGAGGGGAAGACCCUUUGUUAUUAACGAACUUGCGGUAUGAUAACGGCCGACAUGAGAG; assay: phosphorescence titration; conditions: 100 mM NaCl, 5 mM MgCl2; 20 mM HEPES pH 7.0; 1 μM compound, RNA 1 to 10 μM
[13] = tested on: 12Rd-4 (RNA, aptamer) GGGACACAAUGGACGGGCACAAGGUCCCACCAUCUCAGACGAGAAAGGAUACGCAGAUCGGCGAAUAACGGCCGACAUGAGAG; assay: phosphorescence titration; conditions: 100 mM NaCl, 5 mM MgCl2; 20 mM HEPES pH 7.0; 1 μM compound, RNA up to 10 μM
[14] = tested on: 12Rd-3 (RNA, aptamer) GGGACACAAUGGACGUGGGGCUACAGACCAUCCGUUCUAUCCCGAGCACCGGGCCAAUCUCAAGUUAACGGCCGACAUGAGAG; assay: phosphorescence titration; conditions: 100 mM NaCl, 5 mM MgCl2; 20 mM HEPES pH 7.0; 1 μM compound, RNA up to 10 μM

[Ru+2].c1ccc(-c2ccccn2)nc1.c1ccc(-c2ccccn2)nc1.c1ccc(-c2ccccn2)nc1
binding [1]: no
binding [2]: no
Kd [3]: 65 nM
binding [3]: no
binding [4]: yes
binding [5]: no
binding [6]: yes
binding [7]: no
binding [8]: no
binding [9]: yes
Kd [10]: 1600 nM
Kd [11]: 118 ± 90 nM
Kd [12]: 1000 nM
binding [13]: no
binding [14]: no

From paper PMC5324105 (2017)
